Results on 19 compounds are retold here after patent US6903132B2, “Non-peptide GnRH agents, pharmaceutical compositions and methods for their use” (Agouron Pharmaceuticals, Inc., priority 2002, dated 2005).

Common to all, as to experiment: Radioligand binding assay: inhibition of binding of 125I-GnRH-A to GnRH receptors (membranes)
Experiment [1] deals with T1, mouse GnRH receptors (Mus musculus, UniProt Q01776).
T1 construct: expressed in transfected cells; host or cells: HEK 293
T1 sequence (Q01776 1-327): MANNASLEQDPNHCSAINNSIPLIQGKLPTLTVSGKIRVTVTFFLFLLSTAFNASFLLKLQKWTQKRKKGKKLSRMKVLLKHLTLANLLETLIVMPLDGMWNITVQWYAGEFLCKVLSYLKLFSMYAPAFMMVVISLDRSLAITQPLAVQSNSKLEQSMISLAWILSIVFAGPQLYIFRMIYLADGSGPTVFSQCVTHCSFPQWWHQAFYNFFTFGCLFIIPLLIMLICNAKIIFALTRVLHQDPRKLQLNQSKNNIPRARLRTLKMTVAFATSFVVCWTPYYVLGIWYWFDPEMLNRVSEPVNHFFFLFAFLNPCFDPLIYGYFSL
The conditions noted are these: Mouse GnRH receptor; competition with 125I-GnRH-A; Ki calculated from IC50 (Cheng et al.). Put shortly: (§1)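 Membranes from HEK 293 expressing mouse or human receptor, or rat pituitaries, incubated 1 h at RT with ~0.04–0.06 nM ¹²⁵I-[des-Gly¹⁰,D-Ala⁶]GnRH ethylamide and competitor (0.1–10,000 nM) in HEPES pH 7.4 with MgCl2, EDTA, BSA. Filtration onto PEI-soaked GF/C filters, scintillation counting; Ki from IC50 by Cheng–Prusoff.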

The target of experiment [2] is T2, rat GnRH receptor (Rattus norvegicus, UniProt P30969).
T2 construct: rat pituitaries (Pel Freez Biologicals, Rogers, Ark.) are homogenized in buffer A; tissue Pel Freez Biologicals; host or cells: rat pituitaries
T2 sequence (P30969 1-327): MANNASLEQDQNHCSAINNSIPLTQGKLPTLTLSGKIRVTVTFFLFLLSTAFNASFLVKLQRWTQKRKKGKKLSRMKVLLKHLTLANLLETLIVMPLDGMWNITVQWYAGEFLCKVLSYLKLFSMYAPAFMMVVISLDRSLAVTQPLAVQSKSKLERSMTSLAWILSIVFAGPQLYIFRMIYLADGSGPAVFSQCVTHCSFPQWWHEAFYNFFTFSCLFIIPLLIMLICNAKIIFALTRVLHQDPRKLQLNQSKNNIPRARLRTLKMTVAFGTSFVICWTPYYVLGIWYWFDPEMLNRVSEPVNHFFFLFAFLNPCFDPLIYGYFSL
The conditions noted are these: competition with 125I-GnRH-A, Ki calculated from IC50 (Cheng et al.). Put shortly:
as §1

For experiment [3], the target named is T3, human GnRH receptors (Homo sapiens, UniProt P30968).
T3 construct: expressed in transfected cells; host or cells: HEK 293
T3 sequence (P30968 1-328): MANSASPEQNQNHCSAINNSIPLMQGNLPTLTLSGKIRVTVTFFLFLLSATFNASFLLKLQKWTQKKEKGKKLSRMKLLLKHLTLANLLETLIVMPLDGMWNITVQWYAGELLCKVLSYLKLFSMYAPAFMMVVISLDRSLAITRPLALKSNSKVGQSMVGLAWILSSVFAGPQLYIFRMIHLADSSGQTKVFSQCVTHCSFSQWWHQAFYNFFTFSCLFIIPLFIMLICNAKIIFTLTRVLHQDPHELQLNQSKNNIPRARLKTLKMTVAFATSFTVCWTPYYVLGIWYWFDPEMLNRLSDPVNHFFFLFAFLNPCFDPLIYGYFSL
The conditions noted are these: Human GnRH receptor; competition with 125I-GnRH-A; Ki calculated from IC50 (Cheng et al.). The method in brief:
as §1

For orientation: Ki means a dissociation constant, usually derived from enzyme kinetics or from competition with a known ligand. Regarding `Cc1cc(NNC(=O)c2ccc(Oc3cc4c(cc3Cl)N(C)CCC4(C)C)o2)nc2c1c(C)nn2C` [Example I27, 5-(7-Chloro-1,4,4-trimethyl-1,2,3,4-tetrahydro-quinolin-6-yloxy)-furan-2-carboxylic acid N′-(1,3,4-trimethyl-1H-pyrazolo[3,4-b]pyridin-6-yl)-hydrazide], the Ki in experiment [1] is 122 nM; in experiment [2], 370 nM; in experiment [3] it was 101 nM.
Taken in the same sequence, the figures for `COc1cc2c(c(C)c1Oc1ccc(C(=O)NNc3cc(C)c4c(C)nn(C)c4n3)o1)C(C)(C)CCC2(C)C` [Example I25, 5-(3-Methoxy-1,5,5,8,8-pentamethyl-5,6,7,8-tetrahydro-naphthalen-2-yloxy)-furan-2-carboxylic acid N′-(1,3,4-trimethyl-1H-pyrazolo[3,4-b]pyridin-6-yl)-hydrazide] were 38 nM, 59 nM and 31 nM.
Taken in the same sequence, the figures for `Cc1ccc(C(C)(C)C)cc1Oc1ccc(C(=O)NNc2ccc3ccccc3n2)o1` [Example I17, 5-(5-tert-Butyl-2-methyl-phenoxy)-furan-2-carboxylic acid N′-quinolin-2-yl-hydrazide] were 43 nM, 50 nM and 70 nM.
Taken in the same sequence, the figures for `Cc1cc2c(c(O)c1Oc1ccc(C(=O)NNc3cc(C)c4c(C)nn(C)c4n3)o1)C(C)(C)CCC2(C)C` [Example I29, 5-(1-Hydroxy-3,5,5,8,8-pentamethyl-5,6,7,8-tetrahydro-naphthalen-2-yloxy)-furan-2-carboxylic acid N′-(1,3,4-trimethyl-1H-pyrazolo[3,4-b]pyridin-6-yl)-hydrazide] were 58 nM, 64 nM and 49 nM.
In the case of `Cc1cc(NNC(=O)c2ccc(Oc3ccc4c(c3)C(C)(C)CCC4(C)C)o2)nc2c1c(C)nn2C` [Example F4, 5-[(5,5,8,8-tetramethyl-5,6,7,8-tetrahydro-2-naphthalenyl)oxy]-N′-(1,3,4-trimethyl-1H-pyrazolo[3,4-b]pyridin-6-yl)-2-furohydrazide], the Ki in experiment [1] is 450 nM; in experiment [2], 384 nM; in experiment [3], 126 nM.
On to `Cc1cc(C)c(C)c(Cc2ccc(C(=O)NNc3cc(C)c4c(C)nn(C)c4n3)o2)c1C` [Example J12, 5-(2,3,5,6-Tetramethylbenzyl)-N′-(1,3,4-trimethyl-1H-pyrazolo[3,4-b]pyridin-6-yl)-2-furohydrazide], for which the Ki in experiment [1] was 850 nM; in experiment [2], 1200 nM; in experiment [3], 260 nM.
Taken in the same sequence, the figures for `Cc1cc2c(cc1Oc1ccc(C(=O)NNc3cc(C)c4c(C)nn(C)c4n3)o1)C(C)(C)CCC2` [Example I21, N′-(1,3,4-trimethyl-1H-pyrazolo[3,4-b]pyridin-6-y)-5-[(3,8,8-trimethyl-5,6,7,8-tetrahydro-2-naphthalenyl)oxy]-2-furohydrazide] were 5 nM, 22 nM and 4.2 nM.
For `Cc1cc(NNC(=O)c2ccc(Cc3cc4c(cc3Cl)C(C)(C)CCC4(C)C)o2)nc2c1c(C)nn2C` [Example C4, 5-[(3-chloro-5,5,8,8-tetramethyl-5,6,7,8-tetrahydro-2-naphthalenyl)methyl]-N′-(1,3,4-trimethyl-1H-pyrazolo[3,4-b]pyridin-6-yl)-2-furohydrazide], the Ki in experiment [1] was 8.2 nM; in experiment [2], 22 nM; in experiment [3], 1.3 nM.
The like results for `Cc1ccc(C2CCCCC2)cc1Cc1ccc(C(=O)NNc2cc(C)c3c(C)nn(C)c3n2)o1` [Example J16, 5-(5-cyclohexyl-2-methylbenzyl)-N′-(1,3,4-trimethyl-1H-pyrazolo[3,4-b]pyridin-6-yl)-2-furohydrazide] were, in that order, 233 nM, 122 nM and 97 nM.
Taken in the same sequence, the figures for `Cc1sc2c(c1Cc1ccc(C(=O)NNc3cc(C)c4c(C)nn(C)c4n3)o1)C(C)(C)CCC2(C)C` [Example J23] were 280 nM, 660 nM and 140 nM.
As to `Cc1cc2c(cc1Oc1ccc(C(=O)NNc3cc(C)c4c(C)nn(C)c4n3)o1)C(c1ccccc1)CCC2` (stereo not drawn) [Example I18, 5-(3-Methyl-8-phenyl-5,6,7,8-tetrahydro-naphthalen-2-yloxy)-furan-2-carboxylic acid N′-(1,3,4-trimethyl-1H-pyrazolo[3,4-b]pyridin-6-yl)-hydrazide], the Ki is 59 nM in experiment [1], 154 nM in experiment [2] and 58 nM in experiment [3].
Taken in the same sequence, the figures for `Cc1sc2c(c1Cc1ccc(C(=O)NNc3cc(C)c4c(C)nn(C)c4n3)o1)C(C)(C)CCC2(C)C` [Example J28, 5-(2,4,4,7,7-Pentamethyl-4,5,6,7-tetrahydro-benzo[b]thiophen-3-ylmethyl)-furan-2-carboxylic acid N′-(1,3,4-trimethyl-1H-pyrazolo[3,4-b]pyridin-6-yl)-hydrazide] were 130 nM, 245 nM and 30 nM.
The like results for `Cc1cc2c(cc1Oc1ccc(C(=O)NNc3ccc4ccccc4n3)o1)C(C)(C)CC(C)C2(C)C` (stereo not drawn) [Example I20, 5-(3,5,5,6,8,8-Hexamethyl-5,6,7,8-tetrahydro-naphthalen-2-yloxy)-furan-2-carboxylic acid N′-quinolin-2-yl-hydrazide] were, in that order, 4 nM, 7.3 nM and 3.8 nM.
Regarding `COc1ccc(C(C)(C)C)cc1Cc1ccc(C(=O)NNc2cc(C)c3c(C)nn(C)c3n2)o1` [Example J19, 5-[5-(tert-butyl)-2-methoxybenzyl]-N′-(1,3,4-trimethyl-1H-pyrazolo[3,4-b]pyridin-6-yl)-2-furohydrazide], the values for the Ki in experiment [1], in experiment [2] and in experiment [3] were 320 nM, 230 nM and 140 nM, respectively.
Taken in the same sequence, the figures for `Cc1cc(NNC(=O)c2ccc(Oc3cc4c(cc3Cl)NCCC4(C)C)o2)nc2c1c(C)nn2C` [Example I26, 5-(7-Chloro-4,4-dimethyl-1,2,3,4-tetrahydro-quinolin-6-yloxy)-furan-2-carboxylic acid N′-(1,3,4-trimethyl-1H-pyrazolo[3,4-b]pyridin-6-yl)-hydrazide] were 14 nM, 25 nM and 8.3 nM.
As for `Cc1cc2c(cc1Cc1ccc(C(=O)NNc3ncccc3C(F)(F)F)o1)C(C)(C)CCC2(C)C` [Example C11, 5-[(3,5,5,8,8-Pentamethyl-5,6,7,8-tetrahydro-2-naphthalenyl)methyl]-N′-[3-(trifluoromethyl)-2-pyridinyl]-2-furohydrazide], the Ki in experiment [1] is 67 nM; in experiment [2], 84 nM; in experiment [3], 63 nM.
Consider `Cc1cc(C(F)(F)F)cc(NNC(=O)c2ccc(Cc3cc4c(cc3C)C(C)(C)CCC4(C)C)o2)n1` [Example C13, N′-[6-methyl-4-(trifluoromethyl)-2-pyridinyl]-5-[(3,5,5,8,8-pentamethyl-5,6,7,8-tetrahydro-2-naphthalenyl)methyl]-2-furohydrazide], for which the values for the Ki in experiment [1], in experiment [2] and in experiment [3] were 130 nM, 240 nM and 220 nM, respectively.
The like results for `Cc1cc2c(cc1Oc1ccc(C(=O)NNc3cc(C)c4c(C)nn(C)c4n3)o1)C(C(C)C)C(C)C2(C)C` (stereo not drawn) [Example I2, 5-(3-lsopropyl-1,1,2,6-tetramethyl-indan-5-yloxy)-furan-2-carboxylic acid N′-(1,3,4-trimethyl-1H-pyrazolo[3,4-b]pyridin-6-yl)-hydrazide] were, in that order, 3.6 nM, 4.2 nM and 2.4 nM.
The like results for `Cc1cc2c(c(C)c1Oc1ccc(C(=O)NNc3cc(C)c4c(C)nn(C)c4n3)o1)C(C)(C)CCC2(C)C` [Example I9, 5-(1,3,5,5,8,8-Hexamethyl-5,6,7,8-tetrahydro-naphthalen-2-yloxy)-furan-2-carboxylic acid N′-(1,3,4-trimethyl-1H-pyrazolo[3,4-b]pyridin-6-yl)-hydrazide] were, in that order, 2.1 nM, 3.8 nM and 1.2 nM.
